The values that follow come from patent EP4806898A1, “HETEROARYL DERIVATIVE COMPOUND AND USE THEREOF” (Voronoi Inc., priority 2023, dated 2025).

Structures are written as SMILES.

One assay deals with UWB1.289 cells. The assay can be described thus: Cell proliferation inhibitory activity in BRCA1/2-mutant or HRD-positive cells (Cell Titer-Glo). Format: cell-based. Particulars: UWB1289; UWB1.289 cells, 144 hours after compound treatment, Cell Titer-Glo, 1.5 nM to 10 µM; read-out: GI50 UWB1.289 BRCA1 mut. In outline: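 UWB1.289 cells (1,000/well) in 50% MEBM/50% RPMI1640 exposed to […], final 1.5 nM to 10 µM, for 144 h at 37 °C. Viable cells measured by CellTiter-Glo luminescence; GI50 calculated.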
(ATP-based viability assays read luminescence as a measure of living cells.)

The next assay has as its target T1, recombinant USP1 protein (Homo sapiens, UniProt O94782, DEL125-138/DEL229-408/DEL608-737).
T1 sequence (O94782 with tags, fused parts or gaps DEL125-138/DEL229-408/DEL608-737): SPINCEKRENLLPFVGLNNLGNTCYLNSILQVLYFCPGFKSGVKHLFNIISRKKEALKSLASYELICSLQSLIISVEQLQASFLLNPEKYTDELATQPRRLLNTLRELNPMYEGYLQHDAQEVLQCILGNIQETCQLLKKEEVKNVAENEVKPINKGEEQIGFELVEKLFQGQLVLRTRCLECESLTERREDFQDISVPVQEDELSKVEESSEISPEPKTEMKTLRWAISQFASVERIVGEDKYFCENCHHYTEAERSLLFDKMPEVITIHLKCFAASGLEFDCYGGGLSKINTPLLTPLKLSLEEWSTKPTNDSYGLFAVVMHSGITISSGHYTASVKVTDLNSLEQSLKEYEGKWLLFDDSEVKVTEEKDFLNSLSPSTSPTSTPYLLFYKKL
Nature of the assay: Binding affinity to recombinant USP1 protein by differential scanning fluorimetry. Particulars: compound 100 µM; 0.03 mg/mL USP1 (Δ1-66, Δ125-138, Δ229-408, Δ608-737); Tm with compound minus Tm with DMSO; read-out: ΔTm (°C). In outline: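 USP1 (Δ1-66, Δ125-138, Δ229-408, Δ608-737) at 0.03 mg/mL with dye in 50 mM Tris-HCl pH 8.0, 150 mM NaCl, 2% glycerol, 1 mM DTT; compounds at 100 µM final. Tm read on real-time PCR instrument; ΔTm = Tm with compound minus Tm with DMSO.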
In general terms: DSF heats the sample and reads unfolding from a dye or from intrinsic fluorescence.

On to `COc1ncnc(C2CC2)c1-c1ncc2cc(C(=O)N[C@H]3CCN(C)C3)n(Cc3ccc(-c4nc(C(F)(F)F)cn4C(C)C)cc3)c2n1` [Example 174, (S)-2-(4-cyclopropyl-6-methoxypyrimidin-5-yl)-7-(4-(1-isopropyl-4-(trifluoromethyl)-1H-imidazol-2-yl)benzyl)-N-(1-methylpyrrolidin-3-yl)-7H-pyrrolo[2,3-d]pyrimidine-6-carboxamide], for which the GI50 in the assay on UWB1.289 cells is less than 100 nM. On recombinant USP1 protein, the ΔTm at 100 µM is more than 5 °C.

With `CNC(=O)c1cc2cnc(-c3c(OC)ncnc3C3CC3)nc2n1Cc1ccc(-c2nc(C(F)(F)F)c(OC)n2C)cc1` [Example 214, 2-(4-cyclopropyl-6-methoxypyrimidin-5-yl)-7-(4-(5-methoxy-1-methyl-4-(trifluoromethyl)-1H-imidazol-2-yl)benzyl)-N-methyl-7H-pyrrolo[2,3-d]pyrimidine-6-carboxamide], the GI50 with UWB1.289 cells is less than 100 nM. Further, the ΔTm at 100 µM at recombinant USP1 protein was more than 5 °C.

`COc1ncnc(C2CC2)c1-c1ncc2cc(C(=O)N[C@@H]3CN(C)C[C@H]3F)n(Cc3ccc(-c4nc(C(F)(F)F)cn4C)cc3)c2n1` [Example 218, 2-(4-cyclopropyl-6-methoxypyrimidin-5-yl) -N-((3R,4R)-4-fluoro-1-methylpyrrolidin-3-yl)-7-(4-(1-methyl-4-(trifluoromethyl)-1H-imidazol-2-yl)benzyl)-7H-pyrrolo[2,3-d]pyrimidine-6-carboxamide]: the GI50 in the assay with UWB1.289 cells was less than 100 nM. For the same compound, the ΔTm at 100 µM at recombinant USP1 protein was more than 5 °C.

As for `COc1ncnc(C2CC2)c1-c1ncc2cc(C(=O)N[C@@H]3CCC[C@H]3N(C)C)n(Cc3ccc(-c4nc(C(F)(F)F)cn4C(C)C)cc3)c2n1` [Example 115, 2-(4-cyclopropyl-6-methoxypyrimidin-5-yl)-N-((1R,2R)-2-(dimethylamino)cyclopentyl)-7-(4-(1-isopropyl-4-(trifluoromethyl)-1H-imidazol-2-yl)benzyl)-7H-pyrrolo[2,3-d]pyrimidine-6-carboxamide], the GI50 in the assay with UWB1.289 cells was less than 100 nM. Also, the ΔTm at 100 µM at recombinant USP1 protein was more than 5 °C.

As for `COc1ncnc(C2CC2)c1-c1ncc2cc(C(=O)N[C@H](CO)C(C)C)n(Cc3ccc(-c4nc(C(F)(F)F)cn4C(C)C)cc3)c2n1` [Example 155, (S)-2-(4-cyclopropyl-6-methoxypyrimidin-5-yl)-N-(1-hydroxy-3-methylbutan-2-yl)-7-(4-(1-isopropyl-4-(trifluoromethyl)-1H-imidazol-2-yl)benzyl)-7H-pyrrolo[2,3-d]pyrimidine-6-carboxamide], the GI50 in the assay with UWB1.289 cells was less than 100 nM. Besides, the ΔTm at 100 µM on recombinant USP1 protein is more than 5 °C.

Regarding `[2H]C([2H])([2H])Oc1ncnc(C2CC2)c1-c1ncc2cc(C(=O)NC)n(Cc3ccc(-c4nc(C(F)(F)F)cn4C(C)C)cc3)c2n1` [Example 3, 2-(4-cyclopropyl-6-(methoxy-d3)pyrimidin-5-yl)-7-(4-(1-isopropyl-4-(trifluoromethyl)-1H-imidazol-2-yl)benzyl)-N-methyl-7H-pyrrolo[2,3-d]pyrimidine-6-carboxamide], the GI50 with UWB1.289 cells is less than 100 nM. Moreover, the thermal shift (ΔTm) at 100 µM at recombinant USP1 protein was more than 5 °C.

For `COc1ncnc(C2CC2)c1-c1ncc2cc(C(=O)N3CCC3)n(Cc3ccc(-c4nc(C(F)(F)F)cn4C(C)C)cc3)c2n1` [Example 18, azetidin-1-yl(2-(4-cyclopropyl-6-methoxypyrimidin-5-yl)-7-(4-(1-isopropyl-4-(trifluoromethyl)-1H-imidazol-2-yl)benzyl)-7H-pyrrolo[2,3-d]pyrimidin-6-yl)methanone], in the assay with UWB1.289 cells, the GI50 is less than 100 nM. At recombinant USP1 protein, the ΔTm at 100 µM is more than 5 °C.

Consider `[2H]C([2H])([2H])N(C(=O)c1cc2cnc(-c3c(OC)ncnc3C3CC3)nc2n1Cc1ccc(-c2nc(C(F)(F)F)cn2C)cc1)C([2H])([2H])[2H]` [Example 195, 2-(4-cyclopropyl-6-methoxypyrimidin-5-yl)-N,N-bis(methyl-d3)-7-(4-(1-methyl-4-(trifluoromethyl)-1H-imidazol-2-yl)benzyl)-7H-pyrrolo[2,3-d]pyrimidine-6-carboxamide], for which, in the assay on UWB1.289 cells, the GI50 is 100 to 500 nM. Besides, the ΔTm at 100 µM on recombinant USP1 protein is more than 5 °C.

For the compound `COc1ncnc(C2CC2)c1-c1ncc2cc(C(=O)N(C)CSC)n(Cc3ccc(-c4nc(C(F)(F)F)cn4C)cc3)c2n1` [Example 210, 2-(4-cyclopropyl-6-methoxypyrimidin-5-yl)-N-methyl-7-(4-(1-methyl-4-(trifluoromethyl)-1H-imidazol-2-yl)benzyl)-N-((methylthio)methyl)-7H-pyrrolo[2,3-d]pyrimidine-6-carboxamide], the GI50 in the assay with UWB1.289 cells is less than 100 nM. In addition, the ΔTm at 100 µM at recombinant USP1 protein is more than 5 °C.

Turning to `COc1ncnc(C2CC2)c1-c1ncc2cc(C(=O)NC34CC(F)(C3)C4)n(Cc3ccc(-c4nc(C(F)(F)F)cn4C(C)C)cc3)c2n1` [Example 89, 2-(4-cyclopropyl-6-methoxypyrimidin-5-yl)-N-(3-fluorobicyclo[1.1.1]pentan-1-yl)-7-(4-(1-isopropyl-4-(trifluoromethyl)-1H-imidazol-2-yl)benzyl)-7H-pyrrolo[2,3-d]pyrimidine-6-carboxamide], in the assay on UWB1.289 cells, the GI50 was in the range of 100 to 500 nM. For the same compound, the ΔTm at 100 µM on recombinant USP1 protein is more than 5 °C.

In the case of `COc1ncnc(C2CC2)c1-c1ncc2cc(C(=O)NC3CCN(C(C)C)CC3)n(Cc3ccc(-c4nc(C(F)(F)F)cn4C(C)C)cc3)c2n1` [Example 137, 2-(4-cyclopropyl-6-methoxypyrimidin-5-yl)-7-(4-(1-isopropyl-4-(trifluoromethyl)-1H-imidazol-2-yl)benzyl)-N-(1-isopropylpiperidin-4-yl)-7H-pyrrolo[2,3-d]pyrimidine-6-carboxamide], the GI50 in the assay with UWB1.289 cells was less than 100 nM. The ΔTm at 100 µM at recombinant USP1 protein is more than 5 °C.

`CNC(=O)c1cc2cnc(-c3cccnc3OC(F)F)nc2n1Cc1ccc(-c2nc(C(F)(F)F)cn2C(C)C)cc1` [Example 178, 2-(2-(difluoromethoxy)pyridin-3-yl)-7-(4-(1-isopropyl-4-(trifluoromethyl)-1H-imidazol-2-yl)benzyl)-N-methyl-7H-pyrrolo[2,3-d]pyrimidine-6-carboxamide]: the GI50 with UWB1.289 cells was less than 100 nM. The ΔTm at 100 µM at recombinant USP1 protein is more than 5 °C.

Take `COc1ncnc(C2CC2)c1-c1ncc2cc(C(=O)Nc3ccccc3)n(Cc3ccc(-c4nc(C(F)(F)F)cn4C(C)C)cc3)c2n1` [Example 17, 2-(4-cyclopropyl-6-methoxypyrimidin-5-yl)-7-(4-(1-isopropyl-4-(trifluoromethyl)-1H-imidazol-2-yl)benzyl)-N-phenyl-7H-pyrrolo[2,3-d]pyrimidine-6-carboxamide]: in the assay on UWB1.289 cells, the GI50 was less than 100 nM. Also, the ΔTm at 100 µM at recombinant USP1 protein is more than 5 °C.

In the case of `COc1ncnc(C2CC2)c1-c1ncc2cc(C(=O)NC3CCN(C)CC3)n(Cc3ccc(-c4nc(C(F)(F)F)cn4C)cc3)c2n1` [Example 153, 2-(4-cyclopropyl-6-methoxypyrimidin-5-yl)-7-(4-(1-methyl-4-(trifluoromethyl)-1H-imidazol-2-yl)benzyl)-N-(1-methylpiperidin-4-yl)-7H-pyrrolo[2,3-d]pyrimidine-6-carboxamide], the GI50 in the assay with UWB1.289 cells was less than 100 nM. For the same compound, the ΔTm at 100 µM on recombinant USP1 protein was more than 5 °C.

For the compound `COc1ncnc(C2CC2)c1-c1ncc2cc(C(=O)N(C)CC(F)(F)F)n(Cc3ccc(-c4nc(C(F)(F)F)cn4C(C)C)cc3)c2n1` [Example 70, 2-(4-cyclopropyl-6-methoxypyrimidin-5-yl)-7-(4-(1-isopropyl-4-(trifluoromethyl)-1H-imidazol-2-yl)benzyl)-N-methyl-N-(2,2,2-trifluoroethyl)-7H-pyrrolo[2,3-d]pyrimidine-6-carboxamide], in the assay on UWB1.289 cells, the GI50 fell in the range of 100 to 500 nM. Moreover, on recombinant USP1 protein, the ΔTm at 100 µM was more than 5 °C.

For `COc1ncnc(C2CC2)c1-c1ncc2cc(C(=O)N3CC(N(C)C)C3)n(Cc3ccc(-c4nc(C(F)(F)F)cn4C)cc3)c2n1` [Example 179, (2-(4-cyclopropyl-6-methoxypyrimid in-5-yl)-7-(4-(1-methyl-4-(trifluoromethyl)-1H-imidazol-2-yl)benzyl)-7H-pyrrolo[2,3-d]pyrimidin-6-yl) (3-(dimethylamino)azetidin-1-yl)methanone], the GI50 in the assay on UWB1.289 cells is less than 100 nM. In addition, the ΔTm at 100 µM at recombinant USP1 protein was more than 5 °C.

In the case of `CCn1cc(C(F)(F)F)nc1-c1ccc(Cn2c(C(=O)NC)cc3cnc(-c4c(OC)ncnc4C4CC4)nc32)cc1` [Example 68, 2-(4-cyclopropyl-6-methoxypyrimidin-5-yl)-7-(4-(1-ethyl-4-(trifluoromethyl)-1H-imidazol-2-yl)benzyl)-N-methyl-7H-pyrrolo[2,3-d]pyrimidine-6-carboxamide], in the assay on UWB1.289 cells, the 50% growth inhibitory concentration (GI50) was less than 100 nM. Further, the ΔTm at 100 µM on recombinant USP1 protein was more than 5 °C.

Take `COc1ncnc(C2CC2)c1-c1ncc2cc(C(=O)NC3CC3)n(Cc3ccc(-c4nc(C(F)(F)F)cn4C)cc3)c2n1` [Example 150, N-cyclopropyl-2-(4-cyclopropyl-6-methoxypyrimidin-5-yl)-7-(4-(1-methyl-4-(trifluoromethyl)-1H-imidazol-2-yl)benzyl)-7H-pyrrolo[2,3-d]pyrimidine-6-carboxamide]: the GI50 with UWB1.289 cells was less than 100 nM. The ΔTm at 100 µM on recombinant USP1 protein is more than 5 °C.

By GI50 is commonly meant the concentration that inhibits growth by half. As a reminder, the ΔTm is the shift of the melting midpoint relative to a reference.
